Laboratory results reported in patent publication US12319750B2, “Hexokinase 2-specific inhibitors for use in acute central nervous system injury” (GUANGZHOU CELLPROTEK PHARMACEUTICAL CO., LTD, priority 2017, dated 2025).

Legend:
BV2 microglia cells [1] = test: Proinflammatory cytokine protein expression under hypoxia; type: cell-based, mouse; settings: 2-DG, BV 2 cells under hypoxia
Procedure: b) Protein extraction and proinflammatory cytokine protein expression assay: After incubated in 35 mm culture dishes and placed for 24 hours, the cells were subject to hypoxia treatment for indicated time. The total cellular protein was then extracted to detect protein expression of the proinflammatory cytokines TNF-α, IL-1β and IL-6.

BV2 microglia cells [2] = test: Hypoxia-induced microglial activation (morphological changes) in BV2 cells; type: cell-based, mouse
Procedure: a) Cell culture: BV2 cells were grown in DMEM containing 10% fetal bovine serum (FBS), placed in 5% CO2, cultured in a 37° C. constant temperature incubator (relative humidity was 95%), and observed under inverted microscope. Passage was performed approximately 2-3 days, and logarithmic growth phase cells were used for formal experiments. The cells in the hypoxic treatment group were placed in the Coy anoxic chamber with 1% 02, 5% CO2, and 94% N2; other conditions were the same as normal culture conditions.
(§1) b) RNA interference: Cells were seeded in a 35 mm culture dish for 24 hours. Short-interfering RNAs (siRNAs) were transfected with RNAiMAX Reagent. Scrambled RNA was used as a control. In total, 50 nM siRNAs were transfected into the cultures, and after 12 hours, the medium was replaced with fresh medium. Cells were then stimulated with hypoxia for 24 hours to detect the expression level of the indicated proteins.
a) Cell culture: BV2 cells were grown in DMEM containing 10% fetal bovine serum (FBS), placed in 5% CO2, cultured in a 37° C. constant temperature incubator (relative humidity was 95%), and observed under inverted microscope. Passage was performed approximately 2-3 days, and logarithmic growth phase cells were used for formal experiments.

BV 2 cells [3] = test: qRT-PCR of proinflammatory cytokine mRNA under hypoxia; type: cell-based, mouse; settings: lonidamine 50 μM, 3-BrPA 10 μM; for 116 expression (mRNA) / Tnfa expression (mRNA): hypoxia
Procedure: Next, quantitative reverse transcription polymerase chain reaction assays were performed to examine the mRNA levels of several proinflammatory cytokines in the presence or absence of HK2 inhibitors. […] Chromatin immunoprecipitation assays were carried out to examine endogenous binding of acetylated histones to I11b promoter. The binding of AcH3 and AcH4 to the I11b promoter increased during hypoxia, whereas it could be decreased by pretreatment with lonidamine (FIG. 7F).

BV 2 cells [4] = test: Metabolite profiling: acetyl-coenzyme A accumulation under hypoxia; type: cell-based, mouse; settings: lonidamine 50 μM, BrPA 10 μM; hypoxia 6 hours
Procedure: c) Metabolite profiling: BV2 cells were seeded in a 60 mm culture dish and cultured for 24 hours and then cultured in normoxic or hypoxic conditions for 6 hours. Metabolites were extracted using 1.5 mL of ice-cold 80% methanol. After incubation at −80° C. for 30 minutes, cells were scrapped and centrifuged at 14,000 g for 15 min at 4° C. The upper methanol/water phase were transferred into new tubes and incubated at −80° C. for another 30 minutes. The upper phases were centrifuged and dried under nitrogen gas and dried samples were stored at −80° C. prior to LC-MS analysis.

BV2 microglia cells [5] = test: CD 11b expression in hypoxia-stimulated BV2 cells; type: cell-based, mouse; settings: lonidamine 50 μM, DMSO as solvent
Procedure: (§2) c) CD 11b expression detected by Immunofluorescence: BV2 cells were seeded in a laser confocal-specific culture plate, and treated with hypoxia for 24 hours, fixed in 4% paraformaldehyde at room temperature for 20 minutes, and then washed three times with PBST for 5 minutes each time. After washing, CD 11b antibody diluted with DAKO antibody dilution was added and incubated overnight at 4° C. The next day, the samples were incubated with indicated fluorescently labeled secondary antibody at 37° C. for 1 hour.
as §1
as §2, with “b)” for “c)”, “The next day, the samples were incubated with indicated fluorescently labeled secondary antibody at 37° C. for 1 hour.” left out

primary microglia (pMG) [6] = test: Hypoxia-induced microglial activation (morphological changes) in primary microglia; type: cell-based, mouse; settings: lonidamine 50 μM
Procedure: For the isolation and culture of primary microglia, cells were isolated from newborn C57BL/6J mice. Briefly, cerebral cortices devoid of meninges and blood vessels were dissociated from P0-2 mice and digested by 0.125% trypsin at 37° C. for 15 minutes. The digestion was terminated by addition of DMEM containing 10% FBS and isolated single cells were seeded in culture dishes. After the mixed cultures became confluent, microglia were separated from other cell types by slight shaking and purification was identified by the microglial-specific marker CD 11b.

primary microglia (pMG) [7] = test: CD 11b expression in hypoxia-stimulated primary microglia; type: cell-based, mouse; settings: lonidamine 50 μM, DMSO as solvent
Procedure: For the isolation and culture of primary microglia, cells were isolated from newborn C57BL/6J mice. Briefly, cerebral cortices devoid of meninges and blood vessels were dissociated from P0-2 mice and digested by 0.125% trypsin at 37° C. for 15 minutes. The digestion was terminated by addition of DMEM containing 10% FBS and isolated single cells were seeded in culture dishes. After the mixed cultures became confluent, microglia were separated from other cell types by slight shaking and purification was identified by the microglial-specific marker CD 11b. b) CD 11b expression detected by Immunofluorescence: BV2 cells were seeded in a laser confocal-specific culture plate, and treated with hypoxia for 24 hours, fixed in 4% paraformaldehyde at room temperature for 20 minutes, and then washed three times with PBST for 5 minutes each time. After washing, CD 11b antibody diluted with DAKO antibody dilution was added and incubated overnight at 4° C. The next day, the samples were incubated with indicated fluorescently labeled secondary antibody at 37° C. for 1 hour.

[8] = system: middle cerebral artery occlusion (MCAo) rats; test: Rat MCAo model, infarct volume by TTC staining; type: in vivo; settings: 10 mg/kg two hours after operation; measured 24 hours after reperfusion
I11b promoter = test: Chromatin immunoprecipitation (ChIP): acetylated histones at I11b promoter; type: cell-based, mouse; settings: pretreatment 1 hour prior to 6 hours hypoxic exposure
Procedure: d) Chromatin immunoprecipitation (ChIP) assay: BV 2 cells were treated with dimethylsulfoxide or lonidamine for 1 hour prior to 6 hours hypoxic exposure. Then, cells were cross-linked with a 1% formaldehyde solution (Sigma, F8775) for 10 minutes at 37° C. Cell lysates were sonicated to generate 100-1000 bp DNA fragments. Samples were diluted, and 10% of the total amount was retained for input. The remaining portions of each sample were pre-cleared, and anti-H3 or anti-H4 antibodies were added; a normal rabbit IgG antibody was simultaneously used as the negative control. The next day, protein G agarose was added and samples were washed after 2 hours of incubation. Cross-links were then reversed by incubation at 65° C. for 4 hours in 0.2 M NaCl. DNAs were extracted from the input and IP samples, and qPCR assays were performed. The […] promoter primer sequences were as follows: [NT] (forward) (SEQ ID NO. 19) and [NT] (reverse) (SEQ ID NO. 20).

binding of AcH3 to the I11b promoter during hypoxia (I11b promoter)	binding of AcH4 to the I11b promoter during hypoxia (I11b promoter)	Compound	production of proinflammation cytokines (BV2 microglia cells [1])	percentage of BV 2 cells with activated morphological changes (BV2 microglia cells [2]; 500 μM 2-DG, hypoxia 1% oxygen)	hypoxia-induced I11b expression at the mRNA level (BV 2 cells [3])	116 expression (mRNA) (BV 2 cells [3])	Tnfa expression (mRNA) (BV 2 cells [3])	hypoxia-induced accumulation of acetyl-coenzyme A (BV 2 cells [4])	CD 11b expression, BV 2 cells (immunofluorescence) (BV2 microglia cells [5])	activated state of pMG cultures during hypoxia (primary microglia (pMG) [6])	CD 11b expression, pMG cells (immunofluorescence) (primary microglia (pMG) [7])	infarct size [8]	activated state of BV 2 cultures during hypoxia (BV2 microglia cells [2]; lonidamine 50 μM)
		O=CC[C@@H](O)[C@H](O)[C@H](O)CO [2-deoxyglucose, 2-deoxy-D-glucose]	significantly impaired	significantly decreased									
		O=C(O)C(=O)CBr [3-Br-pyruvate, 3-bromopyruvate]			dramatically inhibited	no effect	no effect	remarkably impaired					
decreased	decreased	O=C(O)c1nn(Cc2ccc(Cl)cc2Cl)c2ccccc12 [Lonidamine]			dramatically inhibited	no effect	no effect	remarkably impaired	reduction	markedly inhibited	reduction	significantly reduced	markedly inhibited
